One test concerns M-NFS-60 cells. Description: M-NFS-60 cell proliferation assay (Alamar Blue). It is filed as cell-based, mouse. Particulars: Mus musculus, read-out: CSF1R M-NFS-60 CTB:IC50. Put shortly: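 Alamar Blue reduction (3 h; 560/590 nm) measured viability after 72 h, 37 °C treatment with nine half-log compound concentrations at 0.5% DMSO. Cells: M-CSF-dependent (20 ng/mL) murine M-NFS-60 in RPMI plus 10% FBS. IC50s, averaged from duplicates, reflect half-maximal inhibition of proliferation relative to control.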
A general note: The colour change of resazurin is a common sign of viable cells or microbes.

The target of test [1] is T1, CSF1R (Homo sapiens, UniProt P07333). Kind of test: Competition binding assay, CSF1R Kd. Details: made in house. The method in brief: (§1)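 Kinases, either T7 phage fusions or HEK-293-expressed and DNA-tagged, competed with test compounds for immobilized biotinylated affinity ligand on streptavidin beads in binding buffer (20% SeaBlock, 0.17×PBS, 0.05% Tween 20, 6 mM DTT). After 1 hour at room temperature, bead-bound kinase was eluted and quantified by qPCR; Kd from eleven-point threefold dilutions.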

For another test, the target named is T2, PDGFRβ (Homo sapiens, UniProt P09619).
T2 construct: made in house
Kind of test: Competition binding assay, PDGFRβ Kd. Put shortly: as §1

The target in the next test is T3, FLT3 (Homo sapiens, UniProt P36888).
T3 construct: made in house
T3 sequence (P36888 27-993): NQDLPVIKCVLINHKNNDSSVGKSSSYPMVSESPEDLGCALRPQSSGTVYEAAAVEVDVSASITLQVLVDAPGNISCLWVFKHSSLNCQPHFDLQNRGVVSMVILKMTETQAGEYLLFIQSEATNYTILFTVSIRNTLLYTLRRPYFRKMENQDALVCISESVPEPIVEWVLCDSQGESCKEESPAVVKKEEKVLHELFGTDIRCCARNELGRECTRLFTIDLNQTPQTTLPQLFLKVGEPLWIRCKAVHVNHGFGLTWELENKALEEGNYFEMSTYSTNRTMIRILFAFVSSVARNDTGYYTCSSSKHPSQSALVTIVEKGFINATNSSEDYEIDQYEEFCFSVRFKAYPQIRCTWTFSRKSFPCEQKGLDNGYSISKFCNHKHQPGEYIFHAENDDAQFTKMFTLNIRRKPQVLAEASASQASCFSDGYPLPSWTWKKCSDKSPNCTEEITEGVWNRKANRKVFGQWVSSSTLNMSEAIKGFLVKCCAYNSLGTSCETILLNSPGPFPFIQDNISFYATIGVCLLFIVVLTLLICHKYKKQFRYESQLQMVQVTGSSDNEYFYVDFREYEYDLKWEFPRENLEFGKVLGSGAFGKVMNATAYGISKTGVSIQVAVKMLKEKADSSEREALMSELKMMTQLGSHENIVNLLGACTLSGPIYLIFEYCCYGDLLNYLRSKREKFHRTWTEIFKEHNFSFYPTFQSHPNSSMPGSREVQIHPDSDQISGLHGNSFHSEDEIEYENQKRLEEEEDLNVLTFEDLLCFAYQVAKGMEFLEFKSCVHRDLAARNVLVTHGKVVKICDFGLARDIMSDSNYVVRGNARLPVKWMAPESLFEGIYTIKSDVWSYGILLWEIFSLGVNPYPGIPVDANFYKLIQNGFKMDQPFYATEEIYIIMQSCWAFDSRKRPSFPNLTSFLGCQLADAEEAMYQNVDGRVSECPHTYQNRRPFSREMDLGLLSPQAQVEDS
Kind of test: Competition binding assay, FLT3 Kd. The method in brief:
as §1

The target of another test is T4, KIT (Homo sapiens, UniProt P10721).
T4 construct: made in house
Description: Competition binding assay, KIT Kd. The method in brief:
as §1

Test [2] addresses T1, CSF1R. Kind of test: HEK293 CSF1R phosphorylation MSD assay. It is filed as cell-based. Details: expressed in transfected cells; host or cells: HEK293. Particulars: read-out: HEK293 pCSF1R M-CSF MSD:IC50. The method in brief:
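Ligand-induced CSF1R autophosphorylation was measured by MSD sandwich assay: CSF1R-FKBP from lysates captured via FK506, anti-phosphotyrosine readout. Cells were exposed to compound for 2 h (9-point, half-log, 0.5% DMSO) before 5 min 50 ng/mL M-CSF. Reported IC50 is the mean of duplicate-plate IC50s relative to DMSO control.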

[3] abbreviates: 72 hours incubation, M-CSF 20 ng/mL.
Setting [4] is: 2 h compound, human M-CSF 50 ng/mL for 5 min.

Where two headings read alike, the source gives them in different places.

A word on the IC50: it is the point on the concentration scale where inhibition reaches its midpoint. By Kd is commonly meant the equilibrium constant for the complex coming apart. Low values mean tighter binding, high ones weaker binding.

T4 sequence (P10721 26-976): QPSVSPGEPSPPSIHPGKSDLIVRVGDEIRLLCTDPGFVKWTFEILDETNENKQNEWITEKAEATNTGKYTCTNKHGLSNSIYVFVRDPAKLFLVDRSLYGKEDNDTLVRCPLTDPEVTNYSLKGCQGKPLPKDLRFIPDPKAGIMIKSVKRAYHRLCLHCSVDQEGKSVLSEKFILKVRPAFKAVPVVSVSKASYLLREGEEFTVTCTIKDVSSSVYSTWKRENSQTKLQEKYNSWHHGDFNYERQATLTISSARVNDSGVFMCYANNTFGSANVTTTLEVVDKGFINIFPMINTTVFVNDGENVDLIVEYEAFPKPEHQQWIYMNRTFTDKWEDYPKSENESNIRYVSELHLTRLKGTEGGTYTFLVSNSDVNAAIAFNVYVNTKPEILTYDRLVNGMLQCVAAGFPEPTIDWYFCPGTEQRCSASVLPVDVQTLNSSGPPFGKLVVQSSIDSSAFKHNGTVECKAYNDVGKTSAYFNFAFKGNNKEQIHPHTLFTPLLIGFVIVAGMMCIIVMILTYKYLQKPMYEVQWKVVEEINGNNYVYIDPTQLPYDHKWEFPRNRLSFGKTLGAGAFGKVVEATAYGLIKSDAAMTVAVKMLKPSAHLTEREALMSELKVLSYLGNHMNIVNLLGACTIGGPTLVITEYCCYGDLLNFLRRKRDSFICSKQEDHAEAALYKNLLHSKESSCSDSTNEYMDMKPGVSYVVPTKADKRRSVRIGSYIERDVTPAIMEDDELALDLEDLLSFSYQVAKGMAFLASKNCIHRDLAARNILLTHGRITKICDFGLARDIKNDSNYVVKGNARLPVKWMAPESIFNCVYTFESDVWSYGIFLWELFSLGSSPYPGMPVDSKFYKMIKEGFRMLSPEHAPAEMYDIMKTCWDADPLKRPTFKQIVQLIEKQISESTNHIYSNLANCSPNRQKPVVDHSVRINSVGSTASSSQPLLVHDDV
T2 sequence (P09619 33-1106): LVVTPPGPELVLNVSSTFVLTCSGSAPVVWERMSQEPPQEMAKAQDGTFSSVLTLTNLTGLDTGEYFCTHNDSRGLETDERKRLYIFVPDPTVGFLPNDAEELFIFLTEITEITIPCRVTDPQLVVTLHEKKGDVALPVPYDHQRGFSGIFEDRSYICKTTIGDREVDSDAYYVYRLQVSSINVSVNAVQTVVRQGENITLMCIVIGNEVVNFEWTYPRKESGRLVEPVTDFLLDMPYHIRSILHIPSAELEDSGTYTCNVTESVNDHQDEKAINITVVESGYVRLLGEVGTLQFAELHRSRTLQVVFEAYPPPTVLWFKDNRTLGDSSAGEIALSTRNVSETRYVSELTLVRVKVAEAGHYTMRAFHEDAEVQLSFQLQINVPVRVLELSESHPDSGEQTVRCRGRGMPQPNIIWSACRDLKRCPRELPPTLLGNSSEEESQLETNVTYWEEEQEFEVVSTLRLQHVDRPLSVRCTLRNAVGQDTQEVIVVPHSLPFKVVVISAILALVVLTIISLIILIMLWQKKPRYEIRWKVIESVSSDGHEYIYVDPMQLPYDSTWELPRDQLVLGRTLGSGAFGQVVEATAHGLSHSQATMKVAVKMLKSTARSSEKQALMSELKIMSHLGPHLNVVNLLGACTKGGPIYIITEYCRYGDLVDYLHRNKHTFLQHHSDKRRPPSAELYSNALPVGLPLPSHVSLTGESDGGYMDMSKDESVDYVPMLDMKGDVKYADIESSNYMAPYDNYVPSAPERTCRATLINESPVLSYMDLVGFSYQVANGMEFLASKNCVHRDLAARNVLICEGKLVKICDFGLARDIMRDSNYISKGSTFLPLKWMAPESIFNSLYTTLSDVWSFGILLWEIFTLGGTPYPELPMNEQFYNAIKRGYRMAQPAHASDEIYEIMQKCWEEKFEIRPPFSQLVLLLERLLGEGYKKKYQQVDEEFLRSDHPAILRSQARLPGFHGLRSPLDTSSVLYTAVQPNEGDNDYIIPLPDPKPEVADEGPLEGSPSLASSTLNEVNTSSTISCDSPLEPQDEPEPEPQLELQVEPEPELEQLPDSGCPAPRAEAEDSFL
T1 sequence (P07333 20-972): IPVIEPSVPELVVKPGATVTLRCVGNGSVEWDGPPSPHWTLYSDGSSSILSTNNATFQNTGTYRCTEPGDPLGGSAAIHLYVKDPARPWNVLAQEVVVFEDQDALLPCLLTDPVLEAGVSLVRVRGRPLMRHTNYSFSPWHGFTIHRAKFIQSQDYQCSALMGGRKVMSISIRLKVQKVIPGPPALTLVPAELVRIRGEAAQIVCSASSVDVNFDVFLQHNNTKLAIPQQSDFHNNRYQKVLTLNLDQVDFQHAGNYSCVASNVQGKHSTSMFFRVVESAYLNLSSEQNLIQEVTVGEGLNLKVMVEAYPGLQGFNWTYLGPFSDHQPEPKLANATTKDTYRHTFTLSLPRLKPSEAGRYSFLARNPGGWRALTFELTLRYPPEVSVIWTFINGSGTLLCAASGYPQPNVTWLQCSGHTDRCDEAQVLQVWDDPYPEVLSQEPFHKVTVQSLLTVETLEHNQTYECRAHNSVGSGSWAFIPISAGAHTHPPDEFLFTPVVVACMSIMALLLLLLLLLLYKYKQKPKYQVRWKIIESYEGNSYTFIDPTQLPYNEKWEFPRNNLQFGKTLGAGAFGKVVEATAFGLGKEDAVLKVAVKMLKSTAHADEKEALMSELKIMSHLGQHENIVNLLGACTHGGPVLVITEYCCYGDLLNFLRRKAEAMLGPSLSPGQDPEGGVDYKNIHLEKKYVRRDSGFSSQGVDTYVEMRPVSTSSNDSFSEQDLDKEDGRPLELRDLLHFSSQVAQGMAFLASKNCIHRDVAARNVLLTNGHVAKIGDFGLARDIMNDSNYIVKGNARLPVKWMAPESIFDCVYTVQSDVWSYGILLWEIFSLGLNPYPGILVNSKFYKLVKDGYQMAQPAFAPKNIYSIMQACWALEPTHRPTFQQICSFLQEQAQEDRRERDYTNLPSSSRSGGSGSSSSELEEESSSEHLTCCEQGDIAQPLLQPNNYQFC

As to `COc1cc2ncn(Cc3ccc4nc(NCC5CCCCC5)sc4c3)c2cc1OC` [Example 28, N-(cyclohexylmethyl)-6-((5,6-dimethoxy-1H-benzo[d]imidazol-1-yl)methyl)benzo[d]thiazol-2-amine], the IC50 is 50 to 400 nM with M-NFS-60 cells (setting [3]) and 50 to 200 nM on CSF1R [2] (setting [4]). In addition, the Kd at CSF1R [1] is 5 to 20 nM; on PDGFRβ, not above 50 nM; on FLT3 it was not above 200 nM; on KIT it was not above 100 nM.

For the compound `COc1cc2ncn(Cc3ccc4nc(NCc5ccncc5)sc4c3)c2cc1OC` [Example 21, 6-((5,6-dimethoxy-1H-benzo[d]imidazol-1-yl)methyl)-N-(pyridin-4-ylmethyl)benzo[d]thiazol-2-amine], the IC50 is more than 1500 nM in the test with M-NFS-60 cells (setting [3]) and 200 to 500 nM at CSF1R [2] (setting [4]). The Kd was more than 50 nM at CSF1R [1], more than 2000 nM at PDGFRβ, more than 5000 nM on FLT3 and more than 2000 nM at KIT.

For `O[C@@H]1CCCC[C@H]1Nc1nc2ccc(Cn3cnc4cc(C5=CCNCC5)ccc43)cc2s1` [Example 225, (1R,2R)-2-((6-((5-(1,2,3,6-tetrahydropyridin-4-yl)-1H-benzo[d]imidazol-1-yl)methyl)benzo[d]thiazol-2-yl)amino)cyclohexanol], the IC50 was 400 to 1500 nM with M-NFS-60 cells (M-NFS-60 cell proliferation) and 50 to 200 nM on CSF1R [2] (HEK293 cells, M-CSF stimulated CSF1R phosphorylation, MSD). Further, the Kd on CSF1R [1] (competition binding) is not above 5 nM; at PDGFRβ (competition binding), not above 50 nM; on FLT3 (competition binding), 200 to 1000 nM; on KIT (competition binding), not above 100 nM.

As for `O[C@@H]1CCCC[C@H]1Nc1nc2ccc(Cn3cnc4ccccc43)cc2s1` [Example 6, (1R,2R)-2-((6-((1H-benzo[d]imidazol-1-yl)methyl)benzo[d]thiazol-2-yl)amino)cyclohexanol], the IC50 in the test with M-NFS-60 cells (setting [3]) was 50 to 400 nM; on CSF1R [2] (setting [4]) it was 50 to 200 nM. For the same compound, the Kd on CSF1R [1] was 5 to 20 nM; on PDGFRβ, 50 to 500 nM; at FLT3, not above 200 nM; at KIT it was 100 to 500 nM.

Turning to `O[C@@H]1CCCC[C@H]1Nc1nc2ccc(Cn3cnc4ncccc43)cc2s1` [Example 5, (1R,2R)-2-((6-((1H-imidazo[4,5-b]pyridin-1-yl)methyl)benzo[d]thiazol-2-yl)amino)cyclohexanol], the IC50 in the test with M-NFS-60 cells (setting [3]) was more than 1500 nM; on CSF1R [2] (setting [4]), more than 500 nM. For the same compound, the equilibrium dissociation constant (Kd) on CSF1R [1] was more than 50 nM; on PDGFRβ it was more than 2000 nM; on FLT3, more than 5000 nM; on KIT it was more than 2000 nM.

In the case of `O[C@@H]1CCCC[C@H]1Nc1nc2ccc(Cn3cnc4cc(F)cnc43)cc2s1` [Example 70, (1R,2R)-2-((6-((6-fluoro-3H-imidazo[4,5-b]pyridin-3-yl)methyl)benzo[d]thiazol-2-yl)amino)cyclohexanol], the IC50 with M-NFS-60 cells (setting [3]) is 50 to 400 nM; on CSF1R [2] (setting [4]) it was not above 50 nM. In addition, the Kd at CSF1R [1] is not above 5 nM; at PDGFRβ it was 50 to 500 nM; on FLT3, 1000 to 5000 nM; on KIT, not above 100 nM.

`COc1cc2ncn(Cc3ccc4nc(Nc5ccccc5O)sc4c3)c2cc1OC` [Example 31, 2-((6-((5,6-dimethoxy-1H-benzo[d]imidazol-1-yl)methyl)benzo[d]thiazol-2-yl)amino)phenol]: the IC50 was more than 1500 nM in the test with M-NFS-60 cells (setting [3]) and more than 500 nM on CSF1R [2] (setting [4]). Moreover, the Kd is not above 5 nM at CSF1R [1], 50 to 500 nM on PDGFRβ, 1000 to 5000 nM on FLT3 and 100 to 500 nM at KIT.

For the compound `COc1ccccc1Nc1nc2ccc(Cn3cnc4cc(OC)c(OC)cc43)cc2s1` [Example 30, 6-((5,6-dimethoxy-1H-benzo[d]imidazol-1-yl)methyl)-N-(2-methoxyphenyl)benzo[d]thiazol-2-amine], the IC50 was 50 to 400 nM with M-NFS-60 cells (setting [3]) and 50 to 200 nM on CSF1R [2] (setting [4]). For the same compound, the Kd on CSF1R [1] is not above 5 nM; on PDGFRβ, 50 to 500 nM; at FLT3, 1000 to 5000 nM; on KIT it was not above 100 nM.

Turning to `COC(=O)c1cnc2c(c1)ncn2Cc1ccc2nc(N[C@@H]3CCCC[C@H]3O)sc2c1` [Example 79, methyl 3-((2-(((1R,2R)-2-hydroxycyclohexyl)amino)benzo[d]thiazol-6-yl)methyl)-3H-imidazo[4,5-b]pyridine-6-carboxylate], the IC50 with M-NFS-60 cells (setting [3]) and at CSF1R [2] (setting [4]) was not above 50 nM in each case. For the same compound, the Kd at CSF1R [1] was 5 to 20 nM; at PDGFRβ, not above 50 nM; on FLT3, 200 to 1000 nM; on KIT, not above 100 nM.

As for `O[C@@H]1CCCC[C@H]1Nc1nc2ccc(Cn3cnc4cnccc43)cc2s1` [Example 72, (1R,2R)-2-((6-((1H-imidazo[4,5-c]pyridin-1-yl)methyl)benzo[d]thiazol-2-yl)amino)cyclohexanol], the 50% inhibitory concentration (IC50) was in the range of 400 to 1500 nM in the test on M-NFS-60 cells (setting [3]) and 50 to 200 nM at CSF1R [2] (setting [4]). Also, the Kd at CSF1R [1] is 5 to 20 nM; at PDGFRβ it was 500 to 2000 nM; on FLT3, more than 5000 nM; at KIT, more than 2000 nM.

On to `NCc1cnc2c(c1)ncn2Cc1ccc2nc(N[C@@H]3CCCC[C@H]3O)sc2c1` [Example 91, (1R,2R)-2-((6-((6-(aminomethyl)-3H-imidazo[4,5-b]pyridin-3-yl)methyl)benzo[d]thiazol-2-yl)amino)cyclohexanol acetate], for which the figures for the IC50 in the test with M-NFS-60 cells (setting [3]) and at CSF1R [2] (setting [4]) were 50 to 400 nM and more than 500 nM, respectively. Besides, the equilibrium dissociation constant (Kd) at CSF1R [1] was more than 50 nM; at PDGFRβ it was 50 to 500 nM; at FLT3 it was not above 200 nM; on KIT it was 100 to 500 nM.

With `COc1cc2ncn(Cc3ccc4nc(N[C@@H]5CCCC5O)sc4c3)c2cc1OC` (stereo in doubt) [Example 20, (1R,2R)-2-((6-((5,6-dimethoxy-1H-benzo[d]imidazol-1-yl)methyl)benzo[d]thiazol-2-yl)amino)cyclopentanol], the IC50 with M-NFS-60 cells (setting [3]) was more than 1500 nM; on CSF1R [2] (setting [4]), 200 to 500 nM. The equilibrium dissociation constant (Kd) at CSF1R [1] is 20 to 50 nM; on PDGFRβ, more than 2000 nM; at FLT3, 1000 to 5000 nM; on KIT it was more than 2000 nM.

As for `COc1cc2ncn(Cc3ccc4nc(NCc5ccccn5)sc4c3)c2cc1OC` [Example 9, 6-((5,6-dimethoxy-1H-benzo[d]imidazol-1-yl)methyl)-N-(pyridin-2-ylmethyl)benzo[d]thiazol-2-amine], the IC50 with M-NFS-60 cells (setting [3]) is more than 1500 nM; at CSF1R [2] (setting [4]), 200 to 500 nM. The Kd on CSF1R [1] is 20 to 50 nM; at PDGFRβ, 500 to 2000 nM; at FLT3, 1000 to 5000 nM; at KIT it was 500 to 2000 nM.

With `CN(C)C(=O)c1cnc2c(c1)ncn2Cc1ccc2nc(N[C@@H]3CCCC[C@H]3O)sc2c1` [Example 92, 3-((2-(((1R,2R)-2-hydroxycyclohexyl)amino)benzo[d]thiazol-6-yl)methyl)-N,N-dimethyl-3H-imidazo[4,5-b]pyridine-6-carboxamide], the IC50 in the test on M-NFS-60 cells (setting [3]) fell in the range of 50 to 400 nM; on CSF1R [2] (setting [4]) it was 50 to 200 nM. The Kd at CSF1R [1] is 5 to 20 nM; at PDGFRβ, not above 50 nM; at FLT3 it was 1000 to 5000 nM; on KIT, not above 100 nM.

For the origin of these results see patent publication US9938261B2, “Heterocyclic compounds and methods of use thereof” (AMBIT BIOSCIENCES CORPORATION, priority 2011, dated 2018).
